Results on three compounds are retold here after patent publication US4647693A, “Antibiotics DO-248-A and B and process for preparing the same” (Shionogi & Co., Ltd., priority 1984, dated 1987).

Assay [1] deals with M. tuberculosis R-15 (Rifanpicin resistant strain). The assay can be described thus: MIC, two-fold dilution, Dubos Tween albumin liquid medium. In kind it is cell-based. The note with it: Mycobacterium tuberculosis, 336 h, read-out: minimal inhibitory concentration (MIC).
Assay [2] concerns M. tuberculosis R-18 (Kanamycin and rifanpicin resistant strain). Described as above. As to conditions: Mycobacterium tuberculosis, 336 h, read-out: minimal inhibitory concentration (MIC). In kind it is cell-based.

≈ marks a conversion by molar mass, not a printed value. Bounds are passed on as bounds.

For the compound `NC[C@H]1O[C@H](O[C@H]2[C@H](O)[C@@H](O[C@H]3O[C@H](CO)[C@@H](O)[C@H](N)[C@H]3O)[C@H](N)C[C@@H]2N)[C@H](O)[C@@H](O)[C@@H]1O` [KM, kanamycin], the MIC in assay [1] is less than 0.001 µg/mL; in assay [2], greater than 25 µg/mL.

For the compound `CC(C)c1c(O)cc(C(NC(=N)N)C(=O)NCC(=O)O)cc1O` (stereo not drawn) [DO-248-A, N-(α-guanidino-3,5-dihydroxy-4-isopropylphenylacetyl)glycine], the MIC in assay [1] was determined as 0.1 µg/mL (≈ 0.308 µM); in assay [2], 0.025 µg/mL (≈ 0.0771 µM).

For the compound `CO[C@H]1/C=C/O[C@@]2(C)Oc3c(C)c(O)c4c(O)c(c(/C=N/N5CCN(C)CC5)c(O)c4c3C2=O)NC(=O)/C(C)=C\C=C\[C@H](C)[C@H](O)[C@@H](C)[C@@H](O)[C@@H](C)[C@H](OC(C)=O)[C@@H]1C` [RFP, rifampicin], the MIC in assay [1] and in assay [2] was greater than 25 µg/mL in each case.
